Entries after “also recorded” stand apart in the source; their conditions may differ.
Tests used:
SKOV3 cells = assay: Cell proliferation assay (SRB staining), SKOV3; format: cell-based, Human; conditions: 24 hours with IC50 doses
SKVLB1 cells = assay: cells; format: cell-based; conditions: Homo sapiens, SKVLB1, 48 h, read-out: SKVLB1 IC50 (nM)
Protocol: The Jurkat T cell leukemia line and A-10 rat aortic smooth muscle cells were obtained from the American Type Culture Collection and were cultured in BME containing 10% FBS and 50µg/mL gentamycin sulfate. […] Both cell lines were maintained in BME containing 10% FBS and 50µg/mL gentamycin sulfate.
Cell proliferation assays were performed as described by Skehan et al.^11 For Jurkat cells, cultures were treated with the indicated drugs as described in Skehan^11 and total cell numbers were determined by counting the cells in a hemacytometer. The percentage of cells in mitosis was determined by staining with 0.4% Giemsa in PBS followed by three rapid washes with PBS. At least 1000 cells per treatment were scored for the presence of mitotic figures and the mitotic index was calculated as the ratio of cells with mitotic figures to the total number of cells counted.

[1] = test system: Jurkat T cell leukemia line; assay: Jurkat cell proliferation and mitotic index; format: cell-based; conditions: Homo sapiens; Jurkat cells, 24 hours; read-out: IC50s for inhibition of cell proliferation and accumulation of cells in mitosis
[2] = test system: A-10 rat aortic smooth muscle cells; assay: Immunofluorescence of cytoskeleton in A-10 cells; format: cell-based
Protocol: A-10 cells were grown to near-confluency on glass coverslips in BME/10% FBS. Compounds in PBS were added to the indicated final concentrations and cells were incubated for an additional 24 hours. For the staining of microtubules and intermediate filaments, the cells were fixed with cold methanol and incubated with PBS containing 10% calf serum to block nonspecific binding sites. Cells were then incubated at 37°C for 60 min with either monoclonal anti-β-tubulin or with monoclonal anti-vimentin at dilutions recommended by the manufacturer. Bound primary antibodies were subsequently visualized by a 45-minute incubation with fluorescein-conjugated rabbit antimouse IgG. The coverslips were mounted on microscope slides and the fluorescence patterns were examined and photographed using a Zeiss Photomicroscope ill equipped with epifluorescence optics for fluorescein. […] PBS containing 100nM TRITC-phalloidin was then added and the mixture was allowed to incubate for 45 min at 37° C. The cells were washed rapidly three times with PBS before the coverslips were mounted and immediately photographed as described above.

[3] = pH 11 / hydrolysis
[4] = test system: human tumor cell lines KB and LoVo; assay: In vitro cytotoxicity, KB and LoVo; conditions: read-out: cytotoxicities IC50's
[5] = A-10 cells, 24 hours, 2µM cytochalasin B, 100nM vinblastine or 10nM cryptophycin compounds

Structure (SMILES)	increase in cell number during treatment (SKOV3 cells)	increase in cell numbers in the 24 hours following removal of the drug (SKOV3 cells; then drug-free medium)	IC50 (SKVLB1 cells)	IC50 [1]	microtubule depolymerization after taxol pretreatment [2]	microtubule repolymerization 1 hour after removal of drug ([2]; A-10 cells, 100nM vinblastine or 10nM cryptophycins for 24 hr, then drug-free medium 1 hour)	microtubule repolymerization 24 hours after removal of drug ([2]; A-10 cells, 100nM vinblastine or 10nM cryptophycins for 24 hr, then drug-free medium 24 hours)	effect on microfilaments [2, 5]	effect on microtubules [2, 5]	effect on vimentin intermediate filaments [2, 5]	stability of the C-D ester bond [3]	total dosage required in vivo relative to comparator (tumors implanted in mice; mouse, in vivo)	in vivo antitumor activity (tumors implanted in mice; statement in words)	IC50 [4]
CC[C@]1(O)C[C@@H]2CN(CCc3c([nH]c4ccccc34)[C@@](C(=O)OC)(c3cc4c(cc3OC)N(C)[C@H]3[C@@](O)(C(=O)OC)[C@H](OC(C)=O)[C@]5(CC)C=CCN6CC[C@]43[C@@H]65)C2)C1 [vinblastine]	25%	approximately 3 fold	4200 nM	8 nM	pretreatment with taxol prevented microtubule depolymerization	significant levels of microtubules	complete morphological recovery	Neither compound affected microfilawent organization	marked depletion of microtubules; also recorded: complete depolymerization of microtubules; also recorded: complete microtubule depolymerization	collapsed, forming concentric rings around the nuclei	–	–	–	–
COc1ccc(C[C@H]2NC(=O)/C=C/C[C@@H]([C@H](C)[C@H]3O[C@@H]3c3ccccc3)OC(=O)[C@H](CC(C)C)OC(=O)C(C)(C)CNC2=O)cc1Cl [Cryptophycin 52]	–	–	–	–	–	–	–	–	–	–	stable at pH 11	roughly three times the total dosage compared with Cryptophycin 1	active in vivo	0.043 to 0.07 nM
